Values after ≈ are worked out from the molar mass of the structure shown. Like-named read-outs stand apart in the source and are kept apart here.
Assays:
bronchial mucus = assay: Fluidizing "in vivo" activity of bronchial mucus of bronchitic rabbits (viscosity); parameters: species or system rabbit (male); conditions: oral, based on d,l-sobrerol taken equal to 100
Protocol: A method for studying viscosity of bronchial mucus of a bronchitic rabbit (R. Scuri et al-Il Farmaco, Ed.Pr. 36, 36-48, 1981).
Male rabbits weighing […], made bronchitic by sulphuric acid aerosol treatment according to the method of Cantarelli (G. Cantarelli et al--Il Farmaco, Ed. Pr. 34, 393-416, 1979), are treated with the test drugs and the bronchial mucus is collected by means of a tracheal cannula according to the procedure of R. Scuri (R. Scuri et al -Boll. Chim. Farm. 119, 181-7, 1980). Viscosity of the mucus as withdrawn is studied by using a Contraves RM16 micro viscosimeter and it is recorded by a Rheomat 15T -FC apparatus.
The activity of the compound of formula (I) of this invention is based on the one of d,1-sobrerol, taken equal to 100.

[1] = system: mucoproduction (bronchial secretion); assay: Bronchosecretagogue activity (mucoproduction) in the rabbit; format: in vivo, rabbit (male brown); conditions: oral, percent increase of mucoproduction, period II vs I, based on d,l-trans-sobrerol taken equal to 100
Protocol: Method of mucoproduction in the rabbit according to Scuri R. et al, Boll Chim. Farm. 119, 181-7, 1980.
Male brown rabbits weighing 2.8-3.5 kg. are employed. To said animals, by surgical operation under anaesthesia, a T shaped tracheal cannula is applied, as described in the bibliographic reference mentioned above.
To the cannula, a container (a polyproylene 2 ml test tube) is applied for periodical collection of the bronchial secretion. The study of mucoproduction started at the fourth day after the operation, is divided into two 4 hour periods for collecting and measuring the mucus, and exactly from 8:30 to 12:30 (I) and from 12:30 to 16:30 (II).
The activity of each drug is tested by administering the same by oesophageal way (os) at the begining of the II period and by evaluating the percent increase of mucoproduction (weight of the mucus as collected) over the II period as compared to the I period.
The activity of the compound of formula (I), of the present invention, is based on the d,1-trans-sobrerol one, taken equal to 100.

[2] = Acute toxicity (LD50) in the mouse after single oral administration; format: in vivo, mouse (Swiss albine, female); conditions: in vivo, mortality at 14th day, read-out: DL50 (LD50)
Protocol: (§1) Method for studying LD50 in the mouse after a single oral administration.
(§2) Groups of 10 Swiss albine, female, adult (g.20-22) mice, fasting from the evening preceding the test, are treated by oral way with various doses (4 to 5) of the test drugs, dissolved/suspended in 1% hydroxyethyl cellulose (volume administered : 20ml/kg). Thereafter, the animals are fed again. (Morini MIL fodder for mice)
(§3) The 50% lethal dose (LD50) is calculated by the method of Litchfield, J.T. and Wilcoxon, F. (J. Pharmacol. 96,99-113,1949) by the mortality data as obtained at 14th day after the drug treatment.

Staph. aureus 14154 = assay: Antimicrobic in vitro activity, MIC; format: cell-based; conditions: Mueller-Hinton medium
Protocol: (§4) Microbiologic "in vitro" tests. Tests carried out in order to evaluate the values of the Minimum Inhibiting Concentrations (MIC) are performed by the method of the substrate treated with scalar drugs concentrations, by the "multi-points inoculator" technique.
(§5) As test strains, bacteria from clinical isolation and from international culture collections are tested.
(§6) In the tables, the MIC values (mcg/ml), as obtained employing the Mueller-Hinton medium , are reported.
(§7) The MIC values in the tables refer to readings after 24 and 48 hours at 37° C.
(§8) The strains with 4 figures are of ATCC.

Strept. faecalis 8043 = assay: Antimicrobic in vitro activity, MIC; format: cell-based; conditions: Mueller-Hinton medium
Protocol: as §4, §5, §6, §7, §8

Staph. aureus 6538 = assay: Antimicrobic in vitro activity, MIC; format: cell-based; conditions: Mueller-Hinton medium
Protocol: as §4, §5, §6, §7, §8

Proteus vulg. X 19 = assay: Antimicrobic in vitro activity, MIC; format: cell-based
Protocol: as §4, §5, §6, §7

Esch. coli 418 = assay: Antimicrobic in vitro activity, MIC; format: cell-based; conditions: Mueller-Hinton medium
Protocol: as §4, §5, §6, §7

[3] = system: Staph. epiderm clin (strain 4); assay: Antimicrobic in vitro activity, MIC; format: cell-based; conditions: Mueller-Hinton medium
Protocol: as §4, §5, §6, §7
(§9) clin = clinic isolation

Strept. faecalis clin = assay: Antimicrobic in vitro activity, MIC; format: cell-based; conditions: Mueller-Hinton medium
Protocol: as §4, §5, §6, §7, §9

Cand. albicans clin = assay: Antimicrobic in vitro activity, MIC; format: cell-based; conditions: Mueller-Hinton medium
Protocol: as §4, §5, §6, §7, §9

[4] = system: Pseud. aerug. clin (strain 12); assay: Antimicrobic in vitro activity, MIC; format: cell-based; conditions: Mueller-Hinton medium, 24 hours at 37° C.
Protocol: as §4, §5, §6, §7, §9

Serr. marcescens clin = assay: Antimicrobic in vitro activity, MIC; format: cell-based
Protocol: as §4, §5, §6, §7, §9

[5] = system: Pseud. aerug. clin (strain 11); assay: Antimicrobic in vitro activity, MIC; format: cell-based; conditions: Mueller-Hinton medium
Protocol: as §4, §5, §6, §7, §9

[6] = system: Pseud. aerug. clin (strain 10); assay: Antimicrobic in vitro activity, MIC; format: cell-based; conditions: Mueller-Hinton medium, 24 hours at 37° C.
Protocol: as §4, §5, §6, §7, §9

mouse = assay: Acute toxicity (LD50) in the mouse after single oral administration; format: in vivo, mouse (Swiss albine, female); conditions: mortality at 14th day
Protocol: as §1, §2, §3

[7] = Pharmacokinetics: plasma levels of erythromycin after oral administration; format: in vivo, Wistar rats
Protocol: (§10) Two groups of Wistar rats (180-270g.) are utilized. To the first group the compound of formula (I) of this invention, orally (transoesophageal intubation) at the dose of 800mg/kg, is administered, whilst to the second, again by the oral way, 585 mg/kg of erythromycin are administered.
(§11) Before treatment the rats were fasting for about 15 hours and were allowed to drink ad libitum. In both cases at 0.5 h; 1h;1.5 h; 2h; 3h; 4h; 6h from administration 5 rats/time are sacrificed. The blood as collected in test tubes containing sodium heparin is centrifuged and the plasma so obtained is utilized for the quantitative analysis of erythromycin by means of the micorbiologic standard method, using Staphylococcus aureus as a test organisum (P.G. Welling and W.A. Craig, J. Pharm. Sci. 67, 1057 (1978)).

[8] = Pharmacokinetics: erythromycin in lungs after oral administration; format: in vivo; conditions: Wistar rats, single oral 800 mg/kg vs erythromycin 585 mg/kg; lung homogenate
Protocol: as §10, §11
From the same rats, in similar manner, the lungs are withdrawn and, after homogenizing the tissue, the erythromycin rates are evaluated.

[9] = 24 hours at 37° C., read-out: MIC
[10] = 48 hours at 37° C., read-out: MIC
[11] = Mueller-Hinton medium, 24 hours at 37° C.
[12] = Mueller-Hinton medium, 48 hours at 37° C.

CC[C@H]1OC(=O)[C@H](C)[C@@H](O[C@H]2C[C@@](C)(OC)[C@@H](O)[C@H](C)O2)[C@H](C)[C@@H](O[C@@H]2O[C@H](C)C[C@H](N(C)C)[C@H]2O)[C@](C)(O)C[C@@H](C)C(=O)[C@H](C)[C@@H](O)[C@]1(C)O [erythromycin]
Fluidizing in vivo activity (relative to d,l-sobrerol = 100) (bronchial mucus): 0 | Bronchosecretagogue activity (relative to d,l-trans-sobrerol = 100) [1]: 0 | LD50 at 336 h [2]: > 5000 mg/kg | MIC (Staph. aureus 14154; Staphylococcus aureus, 14154, 24 hours at 37° C., read-out: MIC): 10 µg/mL (≈ 13.6 µM) | MIC (Staph. aureus 14154; Staphylococcus aureus, 14154, 48 hours at 37° C., read-out: MIC): 10 µg/mL (≈ 13.6 µM) | MIC (Strept. faecalis 8043; Enterococcus faecalis, 8043, 24 hours at 37° C., read-out: MIC): 0.3 µg/mL (≈ 0.409 µM) | MIC (Strept. faecalis 8043; Enterococcus faecalis, 8043, 48 hours at 37° C., read-out: MIC): 0.3 µg/mL (≈ 0.409 µM) | MIC (Staph. aureus 6538; Staphylococcus aureus, 6538, 24 hours at 37° C., read-out: MIC): 10 µg/mL (≈ 13.6 µM) | MIC (Staph. aureus 6538; Staphylococcus aureus, 6538, 48 hours at 37° C., read-out: MIC): 10 µg/mL (≈ 13.6 µM) | MIC (Proteus vulg. X 19; 24 h): 2.5 µg/mL (≈ 3.41 µM) | MIC (Proteus vulg. X 19; 48 h): 2.5 µg/mL (≈ 3.41 µM) | MIC (Esch. coli 418; Escherichia coli, 418, 24 hours at 37° C., read-out: MIC): 25 µg/mL (≈ 34.1 µM) | MIC (Esch. coli 418; Escherichia coli, 418, 48 hours at 37° C., read-out: MIC): 25 µg/mL (≈ 34.1 µM) | MIC [3, 9]: 10 µg/mL (≈ 13.6 µM) | MIC [3, 10]: 10 µg/mL (≈ 13.6 µM) | MIC (Strept. faecalis clin; Enterococcus faecalis, 24 hours at 37° C., read-out: MIC): 0.3 µg/mL (≈ 0.409 µM) | MIC (Strept. faecalis clin; Enterococcus faecalis, 48 hours at 37° C., read-out: MIC): 0.3 µg/mL (≈ 0.409 µM) | MIC (Cand. albicans clin; Candida albicans, 24 hours at 37° C., read-out: MIC): 100 µg/mL (≈ 136 µM) | MIC (Cand. albicans clin; Candida albicans, 48 hours at 37° C., read-out: MIC): 100 µg/mL (≈ 136 µM) | MIC ([4]; read-out: MIC): > 100 µg/mL | MIC (Serr. marcescens clin; Serratia marcescens, 24 h): 45 µg/mL (≈ 61.3 µM) | MIC (Serr. marcescens clin; Serratia marcescens, 48 h): 50 µg/mL (≈ 68.1 µM) | MIC [5, 9]: 100 µg/mL (≈ 136 µM) | MIC [5, 10]: 100 µg/mL (≈ 136 µM) | MIC ([6]; read-out: MIC): > 100 µg/mL

Erythromycinsalt of 5-(3-carboxy-1-oxopropoxy)-α, α 4-trimethyl-3-cyclohexene-1-methanol [CO/1311]
Fluidizing in vivo activity (relative to d,l-sobrerol = 100) (bronchial mucus): 132 | Bronchosecretagogue activity (relative to d,l-trans-sobrerol = 100) [1]: 140 | DL50 (LD50) (mouse): 4322.3 mg/kg | MIC (Staph. aureus 14154; 24 hours at 37° C.): 10 µg/mL | MIC (Staph. aureus 14154; 48 hours at 37° C.): 10 µg/mL | MIC (Strept. faecalis 8043; 24 hours at 37° C.): 0.3 µg/mL | MIC (Strept. faecalis 8043; 48 hours at 37° C.): 0.3 µg/mL | MIC (Staph. aureus 6538; 24 hours at 37° C.): 10 µg/mL | MIC (Staph. aureus 6538; 48 hours at 37° C.): 10 µg/mL | MIC (Proteus vulg. X 19; [11]): 2.5 µg/mL | MIC (Proteus vulg. X 19; [12]): 2.5 µg/mL | MIC (Esch. coli 418; 24 hours at 37° C.): 25 µg/mL | MIC (Esch. coli 418; 48 hours at 37° C.): 25 µg/mL | MIC ([3]; 24 hours at 37° C.): 10 µg/mL | MIC ([3]; 48 hours at 37° C.): 10 µg/mL | MIC (Strept. faecalis clin; 24 hours at 37° C.): 0.4 µg/mL | MIC (Strept. faecalis clin; 48 hours at 37° C.): 0.4 µg/mL | MIC (Cand. albicans clin; 24 hours at 37° C.): 100 µg/mL | MIC (Cand. albicans clin; 48 hours at 37° C.): 100 µg/mL | MIC [4]: > 100 µg/mL | MIC (Serr. marcescens clin; [11]): 50 µg/mL | MIC (Serr. marcescens clin; [12]): 50 µg/mL | MIC ([5]; 24 hours at 37° C.): 100 µg/mL | MIC ([5]; 48 hours at 37° C.): 100 µg/mL | MIC [6]: > 100 µg/mL | plasmatic levels of erythromycin vs equidose erythromycin administration ([7]; Wistar rats, single oral 800 mg/kg vs erythromycin 585 mg/kg, 0.5-6 h, microbiologic assay): significantly higher | bioavailability of erythromycin vs the antibiotic administered as such ([7]; rat, in vivo): improved bioavailability | erythromycin rates in lungs vs erythromycin administration [8]: significantly higher

CC1=CC[C@@H](C(C)(C)O)C[C@@H]1O (relative stereo) [d,l-trans-sobrerol]
Fluidizing in vivo activity (relative to d,l-sobrerol = 100) (bronchial mucus): 100 | Bronchosecretagogue activity (relative to d,l-trans-sobrerol = 100) [1]: 100 | LD50 at 336 h [2]: 2340 mg/kg

— patent US4672055A, “Erythromycin salt with mucosecretolytic and fluidizing activity and pharmaceutical compositions thereof” (priority 1984, dated 1987)
